Results published in patent US9815846B2 (Merck Sharp & Dohme Corp., priority 2014, dated 2017).

molecular target: human TrkA receptor (Homo sapiens (Human), UniProt P04629); assay: DiscoverX PathHunter TrkA functional assay (NGF-stimulated U2OS cells); type: cell-based; settings: U2OS cells expressing human TrkA-PK, Shc1-EA and p75NTR; compound 1 h, then NGF at ~80% of maximal response for 3 h; luminescence
Sequence (P04629 33-796): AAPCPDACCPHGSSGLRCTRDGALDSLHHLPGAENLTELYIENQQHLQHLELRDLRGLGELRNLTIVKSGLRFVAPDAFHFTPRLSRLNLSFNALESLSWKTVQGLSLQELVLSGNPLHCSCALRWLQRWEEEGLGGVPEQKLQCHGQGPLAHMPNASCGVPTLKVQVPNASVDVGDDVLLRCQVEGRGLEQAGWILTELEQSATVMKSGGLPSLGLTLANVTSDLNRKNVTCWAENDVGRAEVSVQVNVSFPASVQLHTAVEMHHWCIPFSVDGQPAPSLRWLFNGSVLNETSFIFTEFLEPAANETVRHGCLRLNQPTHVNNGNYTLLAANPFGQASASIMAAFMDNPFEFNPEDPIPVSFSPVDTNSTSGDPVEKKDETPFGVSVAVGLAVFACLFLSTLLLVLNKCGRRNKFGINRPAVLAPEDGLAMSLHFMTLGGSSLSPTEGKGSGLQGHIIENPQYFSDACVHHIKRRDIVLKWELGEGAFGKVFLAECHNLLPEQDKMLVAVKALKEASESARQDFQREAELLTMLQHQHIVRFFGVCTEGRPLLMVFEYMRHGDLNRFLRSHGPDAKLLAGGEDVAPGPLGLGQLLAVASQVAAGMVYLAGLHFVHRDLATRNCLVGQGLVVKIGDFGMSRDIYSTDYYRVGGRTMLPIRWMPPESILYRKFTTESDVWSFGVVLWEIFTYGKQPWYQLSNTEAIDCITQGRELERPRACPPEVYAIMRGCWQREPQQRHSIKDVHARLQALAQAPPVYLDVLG

Row | IC50 | Structure (SMILES)
1 | 1.6 nM | Cn1ccc(-c2cc(C(=O)Nc3cnc(CN4CCOCC4=O)nc3-c3ccccc3)c(F)cc2C(F)(F)F)n1 [Example 223, 2-fluoro-5-(1-methyl-1H-pyrazol-3-yl)-N-(2-((3-oxomorpholino)methyl)-4-phenylpyrimidin-5-yl)-4-(trifluoromethyl)benzamide]
2 | 9.1 nM | Cn1ccc(-c2cc(C(=O)Nc3cnc(CC(=O)N4CCOCC4)nc3-c3ccccc3)c(F)cc2C(F)(F)F)n1 [Example 111, 2-fluoro-5-(1-methyl-1H-pyrazol-3-yl)-N-(2-(2-morpholino-2-oxoethyl)-4-phenylpyrimidin-5-yl)-4-(trifluoromethyl)benzamide]
3 | 130 nM | Cc1noc(-c2cc(C(=O)Nc3cnc(C)nc3-c3ccccc3)ccc2C(F)(F)F)n1 [Example 30, 3-(3-methyl-1,2,4-oxadiazol-5-yl)-N-(2-methyl-4-phenylpyrimidin-5-yl)-4-(trifluoromethyl)benzamide]
4 | 0.69 nM | Cn1ccc(-c2cc(C(=O)Nc3cnc(CC#N)nc3-c3ccccc3)c(F)cc2C(F)(F)F)n1 [Example 34, N-(2-(cyanomethyl)-4-phenylpyrimidin-5-yl)-2-fluoro-5-(1-methyl-1H-pyrazol-3-yl)-4-(trifluoromethyl)benzamide]
5 | 6 nM | NC(=O)Cc1cc(-c2ccccc2)c(NC(=O)c2cc(-c3ccccn3)c(C(F)(F)F)cc2F)cn1 [Example 127, N-(6-(2-amino-2-oxoethyl)-4-phenylpyridin-3-yl)-2-fluoro-5-(pyridin-2-yl)-4-(trifluoromethyl)benzamide]
6 | 1200 nM | O=C(Nc1cnc(C(=O)N2CCOCC2)nc1-c1ccccc1)c1ccc(C(F)(F)F)c(-c2cc[nH]n2)c1 [Example 88, N-(2-(morpholine-4-carbonyl)-4-phenylpyrimidin-5-yl)-3-(1H-pyrazol-3-yl)-4-(trifluoromethyl)benzamide]
7 | 0.11 nM | CN1CC(=O)N(Cc2ncc(NC(=O)c3cc(-c4ccn(C)n4)c(C(F)(F)F)cc3F)c(-c3ccccc3)n2)C1=O [Example 95, 2-Fluoro-5-(1-methyl-1H-pyrazol-3-yl)-N-(2-((3-methyl-2,5-dioxoimidazolidin-1-yl)methyl)-4-phenylpyrimidin-5-yl)-4-(trifluoromethyl)benzamide]
8 | 2.9 nM | O=C(Nc1cc(-c2csc(C3CC3)n2)cnc1N1CCC[C@@H]1CO)c1cc(-c2ncccn2)c(C(F)(F)F)cc1F [Example 137, (R)—N-(5-(2-Cyclopropylthiazol-4-yl)-2-(2-(hydroxymethyl)pyrrolidin-1-yl)pyridin-3-yl)-2-fluoro-5-(pyrimidin-2-yl)-4-(trifluoromethyl)benzamide]
9 | 10 nM | Cn1ccc(-c2cc(C(=O)Nc3cc(-c4ccc(C(=O)O)cn4)cnc3-c3ccccc3)c(F)cc2C(F)(F)F)n1 [Example 171, 5′-(2-fluoro-5-(1-methyl-1H-pyrazol-3-yl)-4-(trifluoromethyl)benzamido)-6′-phenyl-[2,3′-bipyridine]-5-carboxylic acid]
10 | 0.36 nM | Cn1ccc(-c2cc(C(=O)Nc3ccc(C4CNC(=O)N4)nc3-c3ccccc3)c(F)cc2C(F)(F)F)n1 (centres unmarked) [Example 215, 2-Fluoro-5-(1-methyl-1H-pyrazol-3-yl)-N-(6-(2-oxoimidazolidin-4-yl)-2-phenylpyridin-3-yl)-4-(trifluoromethyl)benzamide]
11 | 6 nM | Cn1ccc(-c2cc(C(=O)Nc3cc(CC(N)=O)cnc3-c3ccccc3)ccc2C(F)(F)F)n1 [Example 203, N-(5-(2-amino-2-oxoethyl)-2-phenylpyridin-3-yl)-3-(1-methyl-1H-pyrazol-3-yl)-4-(trifluoromethyl)benzamide]
12 | 0.84 nM | Cn1ccc(-c2cc(C(=O)Nc3cnc(CNC(N)=O)nc3-c3ccccc3)c(F)cc2C(F)(F)F)n1 [Example 76, 2-Fluoro-5-(1-methyl-1H-pyrazol-3-yl)-N-(4-phenyl-2-(ureidomethyl)pyrimidin-5-yl)-4-(trifluoromethyl)benzamide]
13 | 1.8 nM | Cn1ccc(-c2cc(C(=O)Nc3cnc(OCC(N)=O)nc3-c3ccccc3)c(F)cc2C(F)(F)F)n1 [Example 216, N-(2-(2-Amino-2-oxoethoxy)-4-phenylpyrimidin-5-yl)-2-fluoro-5-(1-methyl-1H-pyrazol-3-yl)-4-(trifluoromethyl)benzamide]
14 | 0.53 nM | Cn1ccc(-c2cc(C(=O)Nc3cnc(CNC(=O)CN4CCOC4=O)nc3-c3ccccc3)c(F)cc2C(F)(F)F)n1 [Example 70, 2-fluoro-5-(1-methyl-1H-pyrazol-3-yl)-N-(2-((2-(2-oxooxazolidin-3-yl)acetamido)methyl)-4-phenylpyrimidin-5-yl)-4-(trifluoromethyl)benzamide]
15 | 18 nM | Cn1ccc(-c2cc(C(=O)Nc3cnc(C(C)(C)C(N)=O)nc3-c3ccccc3)c(F)cc2C(F)(F)F)n1 [Example 122, N-(2-(1-amino-2-methyl-1-oxopropan-2-yl)-4-phenylpyrimidin-5-yl)-2-fluoro-5-(1-methyl-1H-pyrazol-3-yl)-4-(trifluoromethyl)benzamide]
16 | 4900 nM | O=C(Nc1ccccc1-c1ccc(F)cc1)c1ccc(C(F)(F)F)cc1F [Example 6, 2-fluoro-N-(4′-fluorobiphenyl-2-yl)-4-(trifluoromethyl)benzamide]

Row | IC50 | Structure (SMILES)
17 | 3.6 nM | C[C@@H](O)C(=O)NCc1cnc(NC(=O)c2cc(-c3ccn(C)n3)c(C(F)(F)F)cc2F)c(-c2ccccc2)n1 [Example 71, (R)-2-fluoro-N-(5-((2-hydroxypropanamido)methyl)-3-phenylpyrazin-2-yl)-5-(1-methyl-1H-pyrazol-3-yl)-4-(trifluoromethyl)benzamide]
18 | 1.1 nM | CN(Cc1ccc(NC(=O)c2cc(-c3ccn(C)n3)c(C(F)(F)F)cc2F)c(-c2ccccc2)n1)C(N)=O [Example 78, 2-fluoro-5-(1-methyl-1H-pyrazol-3-yl)-N-(6-((1-methylureido)methyl)-2-phenylpyridin-3-yl)-4-(trifluoromethyl)benzamide]
19 | 1.3 nM | Cn1ccc(-c2cc(C(=O)Nc3ccc(C(C)(C)O)nc3-c3ccccc3)ccc2C(F)(F)F)n1 [Example 47, N-(6-(2-hydroxypropan-2-yl)-2-phenylpyridin-3-yl)-3-(1-methyl-1H-pyrazol-3-yl)-4-(trifluoromethyl)benzamide]
20 | 1.2 nM | Cn1ccc(-c2cc(C(=O)Nc3cnc(CC(=O)N[C@H]4CCOC4)nc3-c3ccccc3)c(F)cc2C(F)(F)F)n1 [Example 110, (S)-2-fluoro-5-(1-methyl-1H-pyrazol-3-yl)-N-(2-(2-oxo-2-((tetrahydrofuran-3-yl)amino)ethyl)-4-phenylpyrimidin-5-yl)-4-(trifluoromethyl)benzamide]
21 | 15 nM | Cc1ccn(-c2cc(C(=O)Nc3cnc(C)nc3-c3ccccc3)ccc2C(F)(F)F)n1 [Example 17, N-(2-methyl-4-phenylpyrimidin-5-yl)-3-(3-methyl-1H-pyrazol-1-yl)-4-(trifluoromethyl)benzamide]
22 | 18 nM | O=C(Nc1cc2c(nc1-c1ccccc1)C(=O)NC2=O)c1cc(-c2ncccn2)c(C(F)(F)F)cc1F [Example 185, N-(5,7-Dioxo-2-phenyl-6,7-dihydro-5H-pyrrolo[3,4-b]pyridin-3-yl)-2-fluoro-5-(pyrimidin-2-yl)-4-(trifluoromethyl)benzamide]
23 | 55 nM | NCc1ncc(NC(=O)c2ccc(C(F)(F)F)c(-c3ccn(C(F)F)n3)c2)c(-c2ccccc2)n1 [Example 43]
24 | 12 nM | Cn1ccc(-c2cc(C(=O)Nc3cnc(CNS(C)(=O)=O)nc3-c3ccccc3)ccc2C(F)(F)F)n1 [Example 75, 3-(1-methyl-1H-pyrazol-3-yl)-N-(2-(methylsulfonamidomethyl)-4-phenylpyrimidin-5-yl)-4-(trifluoromethyl)benzamide]
25 | 4.9 nM | Cc1ccccc1-c1nc(CC(N)=O)ncc1NC(=O)c1cc(-c2ccn(C)n2)c(C(F)(F)F)cc1F [Example 117, N-(2-(2-amino-2-oxoethyl)-4-(o-tolyl)pyrimidin-5-yl)-2-fluoro-5-(1-methyl-1H-pyrazol-3-yl)-4-(trifluoromethyl)benzamide]
26 | 140 nM | Cc1cc(C)n(-c2ccc(Cl)c(C(=O)Nc3cnc(C)nc3-c3ccccc3)c2)n1 [Example 9, 2-chloro-5-(3,5-dimethyl-1H-pyrazol-1-yl)-N-(2-methyl-4-phenylpyrimidin-5-yl)benzamide]
27 | 7 nM | Cc1ncc(NC(=O)c2cc(-c3ccn(C)n3)c(C(F)(F)F)cc2F)c(-c2ccccc2CCN)n1 [Example 134, N-(4-(2-(2-aminoethyl)phenyl)-2-methylpyrimidin-5-yl)-2-fluoro-5-(1-methyl-1H-pyrazol-3-yl)-4-(trifluoromethyl)benzamide]
28 | 1.2 nM | C[C@H](O)CNC(=O)c1cnc(-c2ccccc2)c(NC(=O)c2cc(-c3ccn(C)n3)c(C(F)(F)F)cc2F)c1 [Example 84, (S)-5-(2-fluoro-5-(1-methyl-1H-pyrazol-3-yl)-4-(trifluoromethyl)benzamido)-N-(2-hydroxypropyl)-6-phenylnicotinamide]
29 | 1.4 nM | Cn1ccc(-c2cc(C(=O)Nc3cnc(NCC(N)=O)nc3-c3ccccc3)c(F)cc2C(F)(F)F)n1 [Example 213, N-(2-((2-amino-2-oxoethyl)amino)-4-phenylpyrimidin-5-yl)-2-fluoro-5-(1-methyl-1H-pyrazol-3-yl)-4-(trifluoromethyl)benzamide]
30 | 5.7 nM | Cn1ccc(-c2cc(C(=O)Nc3ccc(CNC(=O)CO)nc3-c3ccccc3)ccc2C(F)(F)F)n1 [Example 53, N-(6-((2-hydroxyacetamido)methyl)-2-phenylpyridin-3-yl)-3-(1-methyl-1H-pyrazol-3-yl)-4-(trifluoromethyl)benzamide]
31 | 0.58 nM | C[C@@H](CO)NC(=O)c1cnc(-c2ccccc2)c(NC(=O)c2cc(-c3ccn(C)n3)c(C(F)(F)F)cc2F)c1 [Example 85, (S)-5-(2-fluoro-5-(1-methyl-1H-pyrazol-3-yl)-4-(trifluoromethyl)benzamido)-N-(1-hydroxypropan-2-yl)-6-phenylnicotinamide]
32 | 1.5 nM | Cn1ccc(-c2cc(C(=O)Nc3cc(C(N)=O)cnc3-c3ccccc3)ccc2C(F)(F)F)n1 [Example 89, 5-(3-(1-methyl-1H-pyrazol-3-yl)-4-(trifluoromethyl)benzamido)-6-phenylnicotinamide]
